The target in data set [1] is T1, Casein kinase 2 (Homo sapiens, UniProt P67870+P68400+P19784+Q8NEV1). Briefly: Inhibition of CK2 (unknown origin). The data set is classed as protein assay.
Data set [2] in a line: Cytotoxicity against human MSC assessed as cell viability after 48 hrs by CCK-8 assay. The data set is classed as toxicity, cell-based. To be noted: mesenchymal stem cells (MSC). Background: Tetrazolium dyes change colour on reduction, which living cells bring about.
The subject of another data set is SK-OV-3. Briefly: Antiproliferative activity against human SK-OV-3 cells assessed as cell viability after 48 hrs by CCK-8 assay. The data set is classed as functional, cell-based. As to conditions: SK-OV-3, 48 h.
The test system of data set [3] is HL-60. The data set can be described thus: Antiproliferative activity against human HL-60 cells assessed as cell viability after 48 hrs by CCK-8 assay. It is filed as functional, cell-based. As to conditions: HL-60, 48 h.
In another data set the test system is A549. The data set can be described thus: Antiproliferative activity against human A549 cells assessed as cell viability after 48 hrs by CCK-8 assay. The data set is classed as functional, cell-based. To be noted: A549, 48 h.
In another data set the test system is HepG2. Briefly: Antiproliferative activity against human HepG2 cells assessed as cell viability after 48 hrs by CCK-8 assay. It is filed as functional, cell-based. To be noted: HepG2, 48 h.
For data set [4], the system named is HL-60. Briefly: Induction of apoptosis in human HL-60 cells assessed as early apoptotic cells at 1 uM measured after 48 hrs by flow cytometry relative to control. The data set is classed as functional. (A flow cytometer gives signals particle by particle.)
Data set [5] has as its system HL-60. The data set can be described thus: Induction of apoptosis in human HL-60 cells measured after 48 hrs by flow cytometry. It is filed as functional, cell-based. As to conditions: DDE = dose-dependent effect.
The target of data set [6] is T1, Casein kinase 2. Briefly: Inhibition of CK2 in human HL-60 cells assessed as decrease in p-alpha-catenin level at 0.1 to 1 uM by Western blot analysis. The data set is classed as cell-based. As to conditions: dose 0.1-1 µM.
The target of data set [7] is T1, Casein kinase 2. Briefly: Inhibition of CK2 in human HL-60 cells assessed as decrease in p-p21 level at 0.1 to 1 uM by Western blot analysis. The data set is classed as cell-based. As to conditions: dose 0.1-1 µM.
The target in data set [8] is T1, Casein kinase 2. The data set can be described thus: Inhibition of CK2 in human HL-60 cells assessed as decrease in p-Akt (S129) level at 0.1 to 1 uM by Western blot analysis. As to conditions: dose 0.1-1 µM. The data set is classed as cell-based. (In western blotting, separated proteins are transferred to a membrane and probed.)
Data set [9] addresses T1, Casein kinase 2. The data set can be described thus: Inhibition of CK2 in human HL-60 cells assessed as decrease in survivin level at 0.1 to 1 uM by Western blot analysis. It is filed as cell-based. As to conditions: dose 0.1-1 µM.
For data set [10], the target named is T1, Casein kinase 2. The data set can be described thus: Binding affinity to CK2 (unknown origin) by cellular thermal shift assay. The data set is classed as protein assay.
The target of data set [11] is T1, Casein kinase 2. Briefly: Inhibition of CK2 in human HL-60 cells assessed as increase in cleaved PARP level at 0.1 to 1 uM by Western blot analysis. It is filed as cell-based. To be noted: dose 0.1-1 µM.
In data set [12] the test system is HL-60. Briefly: Induction of cell cycle arrest in human HL-60 cells assessed as increase number of cells at G0/G1 phase at 0.1 to 1 uM measured after 12 to 48 hrs by flow cytometry. The data set is classed as functional, cell-based. To be noted: dose 0.1-1 µM, time 12-48 hrs, DDE = dose-dependent effect.
Data set [13] deals with T1, Casein kinase 2. The data set can be described thus: Inhibition of CK2 in human HL-60 cells assessed as decrease in p-STAT3 level at 0.1 to 1 uM by Western blot analysis. To be noted: dose 0.1-1 µM. It is filed as cell-based.

Activity calls are given as the source filed them. The rule behind the calls is not given here.

For orientation: IC50 means the midpoint of a concentration-inhibition curve.

Compound `CC(C)c1csc(NC(=O)c2cc(=O)c3ccccc3o2)n1` had an IC50 on Casein kinase 2 [1] of 5340 nM.

Turning to `O=C(Nc1ncco1)c1cc(=O)c2ccccc2o1`, the IC50 against Casein kinase 2 [1] turned out to be 4880 nM.

At Casein kinase 2 [1], `Cc1csc(NC(=O)c2cc(=O)c3ccccc3o2)n1` came in with an IC50 of 6420 nM.

On to `O=Cc1cnc(NC(=O)c2cc(=O)c3ccccc3o2)s1`, for which the IC50 against Casein kinase 2 [1] was 4980 nM.

Turning to `O=C(Nc1nc2cc(F)ccc2s1)c1cc(=O)c2ccccc2o1`, the IC50 at 48 h in data set [2] came out at 4340 nM. The IC50 in the data set with SK-OV-3 amounted to 420 nM; in the data set with HL-60 [3], 310 nM; against Casein kinase 2 [1], 110 nM; with A549, 440 nM; with HepG2 it was 850 nM.

Compound `COc1ccc(-c2csc(NC(=O)c3cc(=O)c4ccccc4o3)n2)cc1` gave an IC50 on Casein kinase 2 [1] of 590 nM.

On Casein kinase 2 [1], `O=C(Nc1nc2ccc(F)cc2s1)c1cc(=O)c2ccccc2o1` displayed an IC50 of 240 nM.

In turn, `CC(C)Cc1csc(NC(=O)c2cc(=O)c3ccccc3o2)n1` gave an IC50 against Casein kinase 2 [1] of 4350 nM.

`O=C(Nc1nc(-c2ccc(C(F)(F)F)cc2)cs1)c1cc(=O)c2ccccc2o1` showed an IC50 at Casein kinase 2 [1] of 340 nM.

Consider `COc1ccc2nc(NC(=O)c3cc(=O)c4ccccc4o3)sc2c1`, for which the IC50 on Casein kinase 2 [1] amounted to 290 nM.

As to `O=C(Nc1nc2ccccc2s1)c1cc(=O)c2ccccc2o1`, on Casein kinase 2 [1], the IC50 worked out at 310 nM.

Consider `Cc1nc(NC(=O)c2cc(=O)c3ccccc3o2)sc1C`, for which the half-inhibitory concentration (IC50) on Casein kinase 2 [1] was determined as 6110 nM.

Consider `O=C(Nc1nc(-c2ccc(F)cc2)cs1)c1cc(=O)c2ccccc2o1`, for which the IC50 at 48 h in data set [2] turned out to be 7560 nM. Further, the IC50 was 440 nM in the data set with SK-OV-3; 420 nM in the data set with HL-60 [3]; 150 nM against Casein kinase 2 [1]; 520 nM with A549; 950 nM in the data set with HepG2.

For the compound `O=C(Nc1nc2ccc(Br)cc2s1)c1cc(=O)c2ccccc2o1`, the IC50 on Casein kinase 2 [1] was 290 nM.

With `CNC(=O)c1cc(Oc2ccc(NC(=O)Nc3ccc(Cl)c(C(F)(F)F)c3)cc2)ccn1` [SORAFENIB], the Activity in the data set on HL-60 [4] is reported as 73.2%.

Compound `O=C(Nc1nnco1)c1cc(=O)c2ccccc2o1` returned an IC50 against Casein kinase 2 [1] of 6880 nM.

With `O=C(Nc1nc(-c2ccc(O)cc2)cs1)c1cc(=O)c2ccccc2o1`, the IC50 at Casein kinase 2 [1] was 740 nM.

For the compound `O=C(Nc1nc(-c2cccc(C(F)(F)F)c2)cs1)c1cc(=O)c2ccccc2o1`, the IC50 on Casein kinase 2 [1] was 5550 nM.

In turn, `O=C(Nc1nccs1)c1cc(=O)c2ccccc2o1` had an IC50 at Casein kinase 2 [1] of 5210 nM.

Compound `O=C(Nc1nc2ccc(OC(F)(F)F)cc2s1)c1cc(=O)c2ccccc2o1` came in with an IC50 at Casein kinase 2 [1] of 160 nM.

For `O=C(Nc1nc(-c2ccc(OC(F)(F)F)cc2)cs1)c1cc(=O)c2ccccc2o1`, the IC50 at 48 h in [2] turned out to be 17700 nM. In addition, the IC50 in the data set with SK-OV-3 is 490 nM; with HL-60 [3], 590 nM; against Casein kinase 2 [1] it was 180 nM; in the data set on A549, 670 nM; in the data set on HepG2, 1040 nM.

`N#Cc1cccc(-c2csc(NC(=O)c3cc(=O)c4ccccc4o3)n2)c1`: the IC50 against Casein kinase 2 [1] is 5090 nM.

`O=C(Nc1nc2cc(Br)ccc2s1)c1cc(=O)c2ccccc2o1` registered an IC50 against Casein kinase 2 [1] of 250 nM.

In the case of `Cc1cccc(-c2csc(NC(=O)c3cc(=O)c4ccccc4o3)n2)c1`, on Casein kinase 2 [1], the IC50 worked out at 4120 nM.

`COc1ccc2sc(NC(=O)c3cc(=O)c4ccccc4o3)nc2c1`: in data set [2], the IC50 at 48 h is 6250 nM. Also, the Activity result in the data set on HL-60 [5] is “Dde”; in the data set on HL-60 [12], “Dde”; with HL-60 [4], 80.7%. For the same compound, the inhibition entry on Casein kinase 2 [6], on Casein kinase 2 [7], at Casein kinase 2 [8], on Casein kinase 2 [9], at Casein kinase 2 [11] and at Casein kinase 2 [13] was “Active” in each case. In addition, on Casein kinase 2 [10], the result was Active. Besides, the IC50 in the data set with SK-OV-3 came out at 390 nM; in the data set with HL-60 [3], 250 nM; at Casein kinase 2 [1] it was 80 nM; with A549, 380 nM; with HepG2, 660 nM.

`O=C(Nc1ncc(Br)s1)c1cc(=O)c2ccccc2o1`: the IC50 against Casein kinase 2 [1] was 5440 nM.

At Casein kinase 2 [1], `Cc1nnc(NC(=O)c2cc(=O)c3ccccc3o2)o1` had an IC50 of 5200 nM.

Regarding `Cc1ccc(-c2csc(NC(=O)c3cc(=O)c4ccccc4o3)n2)cc1`, at Casein kinase 2 [1], the IC50 was 230 nM.

On Casein kinase 2 [1], `O=C(Nc1nc(-c2ccccc2)cs1)c1cc(=O)c2ccccc2o1` gave an IC50 of 610 nM.

At Casein kinase 2 [1], `Cc1cc2nc(NC(=O)c3cc(=O)c4ccccc4o3)sc2cc1C` gave an IC50 of 360 nM.

`Cc1cnc(NC(=O)c2cc(=O)c3ccccc3o2)s1` displayed an IC50 against Casein kinase 2 [1] of 7110 nM.

At Casein kinase 2 [1], `O=C(O)c1cc(=O)c2ccccc2o1` [CHROMOCARB] gave an IC50 of 5980 nM.

Take `O=C(Nc1nc2ccc(C(F)(F)F)cc2s1)c1cc(=O)c2ccccc2o1`: at Casein kinase 2 [1], the IC50 was determined as 200 nM.

`Cc1ccc2nc(NC(=O)c3cc(=O)c4ccccc4o3)sc2c1` gave an IC50 on Casein kinase 2 [1] of 370 nM.

The record behind these values is ChEMBL document CHEMBL5126564, “Design, synthesis and biological evaluation of chromone derivatives as novel protein kinase CK2 inhibitors” (Bioorg Med Chem Lett, 2022).
